Results taken from PMC8431370, “The Second-Generation PIM Kinase Inhibitor TP-3654 Resensitizes ABCG2-Overexpressing Multidrug-Resistant Cancer Cells to Cytotoxic Anticancer Drugs” (International Journal of Molecular Sciences, 2021).
pIC50: −log10 of the molar value.

Key:
[1] = molecular target: T1, ATP-binding cassette (ABC) subfamily G member 2 (ABCG2) (Homo sapiens, UniProt Q9UNQ0); assay: flow cytometry inhibition of pheophorbide A efflux in ABCG2-transfected HEK293 cells (also S1-M1-80 and H460-MX20); type: cell-based
T1 construct: ABCG2-transfected R482-HEK293 cells
T1 sequence (Q9UNQ0 1-655): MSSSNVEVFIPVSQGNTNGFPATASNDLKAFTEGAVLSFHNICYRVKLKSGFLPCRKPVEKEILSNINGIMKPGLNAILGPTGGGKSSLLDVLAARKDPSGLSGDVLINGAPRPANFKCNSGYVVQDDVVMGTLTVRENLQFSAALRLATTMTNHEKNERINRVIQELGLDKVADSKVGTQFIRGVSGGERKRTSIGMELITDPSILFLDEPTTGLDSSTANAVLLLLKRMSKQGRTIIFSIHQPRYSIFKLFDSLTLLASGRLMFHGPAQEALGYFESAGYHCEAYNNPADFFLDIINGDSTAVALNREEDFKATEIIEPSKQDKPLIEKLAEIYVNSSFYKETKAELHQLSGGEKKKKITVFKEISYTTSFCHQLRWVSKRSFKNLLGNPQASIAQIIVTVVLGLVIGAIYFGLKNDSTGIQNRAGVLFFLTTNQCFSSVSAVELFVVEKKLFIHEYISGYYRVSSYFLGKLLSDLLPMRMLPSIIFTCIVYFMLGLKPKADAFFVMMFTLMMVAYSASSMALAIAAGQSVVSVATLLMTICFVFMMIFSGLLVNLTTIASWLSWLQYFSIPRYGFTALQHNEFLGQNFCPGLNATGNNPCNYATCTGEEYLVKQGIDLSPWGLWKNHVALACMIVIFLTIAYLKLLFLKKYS
Source text: flow cytometry inhibition of pheophorbide A efflux in ABCG2-transfected HEK293 cells (also S1-M1-80 and H460-MX20) on ATP-binding cassette (ABC) subfamily G member 2 (ABCG2) | TP-3654 inhibited ABCG2-mediated efflux of PhA in ABCG2-transfected R482-HEK293 cells

[2] = molecular target: T1, ATP-binding cassette (ABC) subfamily G member 2 (ABCG2); assay: flow cytometry of ABCG2-mediated efflux in parental and ABCG2-transfected HEK293 cells; type: cell-based

Row | pIC50 [1] | Compound | flow cytometry of ABCG2-mediated efflux in parental and ABCG2-transfected HEK293 [2]
1 | ~6.85 | CC(C)(O)[C@H]1CC[C@H](Nc2ccc3ncc(-c4cccc(C(F)(F)F)c4)n3n2)CC1 [TP-3654] | –
2 | – | C=Cc1c(C)c2cc3nc(c4c5[nH]c(cc6nc(cc1[nH]2)C(C)=C6CC)c(C)c5C(=O)[C@@H]4C(=O)OC)[C@@H](CCC(=O)O)[C@@H]3C [pheophorbide A] | Flow cytometry analysis of PhA accumulation in parental HEK293 cells and ABCG2-transfected R482-HEK293 cells
